# According to publication PMC6271338, “Synthesis and Cytotoxic Evaluation of Alkoxylated Chalcones” (Molecules, 2014):
# Experiments:
# [1] = Cytotoxicity (SRB) against non-tumoral HMLE cells; assay type: cell-based, human; conditions: human, HMLE cells (non-tumoral human mammary epithelial cells); increasing concentrations up to 100 μM; mean ± SD of at least three independent experiments; read-out: Normal Human Cell Lines, CC50, HMLE
# Description: (§1) All compounds were also evaluated for their cytotoxic activity against two non-tumoral human cell lines named human mammary epithelial cell (HMLE) and L02 (a human liver cell line) in Table 2 and SI values between the CC50 in non-tumoral cell lines and IC50 in tumoral cells calculated.
# (§2) HepG2 and MCF7 cells were grown in the Eagle’s minimum essential medium with Earle’s balanced salts (MEM-EBSS) medium, HeLa, A549 and L02 cells were grown in Dulbecco’s Modified Eagle Media (DMEM), SW1990 cells were grown in RPMI-1640 medium, and HMLE cell were grown in DMEM/F-12 medium. […]
# (§3) Cells were seeded into 96-well plates (4000 cells/well) and incubated at 37 °C in a humidified 5% CO2 atmosphere. After 24 h, the cells were treated with different concentrations of the compounds for 48 h in triplicate to generate dose-response curves. Cell viability was evaluated using the sulforhodamine B (SRB) assay as previous described. […] Etoposide was used as the positive control.
# [2] = Cytotoxicity (SRB) against non-tumoral L02 cells; assay type: cell-based, human; conditions: human, L02 cells (non-tumoral human liver cell line); increasing concentrations up to 100 μM; mean ± SD of at least three independent experiments; read-out: Normal Human Cell Lines, CC50, L02
# Description: as §1, §2, §3
# [3] = tested on: SW1990 cells; test: In vitro anti-proliferative SRB assay, SW1990; assay type: cell-based, human; conditions: for IC50: Homo sapiens, SW1990, increasing concentrations up to 30 μM, mean ± SD of at least three independent experiments; for SI (CC50 HMLE/IC50 SW1990) / SI (CC50 L02/IC50 SW1990): selectivity index; for SI (CC50 HMLE/IC50 SW1990): HMLE vs SW1990; for SI (CC50 L02/IC50 SW1990): L02 vs SW1990
# Description: as §2
# (§4) Cells were seeded into 96-well plates (4000 cells/well) and incubated at 37 °C in a humidified 5% CO2 atmosphere. After 24 h, the cells were treated with different concentrations of the compounds for 48 h in triplicate to generate dose-response curves. Cell viability was evaluated using the sulforhodamine B (SRB) assay as previous described.
# [4] = tested on: HepG2 cells; test: In vitro anti-proliferative SRB assay, HepG2; assay type: cell-based, human; conditions: for IC50 / inhibition at 10 µM: Homo sapiens; for IC50: HepG2, increasing concentrations up to 30 μM, mean ± SD of at least three independent experiments; for SI (CC50 HMLE/IC50 HepG2) / SI (CC50 L02/IC50 HepG2): selectivity index; for SI (CC50 HMLE/IC50 HepG2): HMLE vs HepG2; for SI (CC50 L02/IC50 HepG2): L02 vs HepG2
# Description: as §2, §4
# [5] = tested on: A549 cells; test: In vitro anti-proliferative SRB assay, A549; assay type: cell-based, human; conditions: for IC50: Homo sapiens, A549, increasing concentrations up to 30 μM, mean ± SD of at least three independent experiments; for SI (CC50 HMLE/IC50 A549) / SI (CC50 L02/IC50 A549): selectivity index; for SI (CC50 HMLE/IC50 A549): HMLE vs A549; for SI (CC50 L02/IC50 A549): L02 vs A549
# Description: as §2, §4
# [6] = tested on: MCF-7 cells; test: In vitro anti-proliferative SRB assay, MCF-7; assay type: cell-based, human; conditions: for IC50: Homo sapiens, MCF7, increasing concentrations up to 30 μM, mean ± SD of at least three independent experiments; for SI (CC50 HMLE/IC50 MCF7) / SI (CC50 L02/IC50 MCF7): selectivity index; for SI (CC50 HMLE/IC50 MCF7): HMLE vs MCF7; for SI (CC50 L02/IC50 MCF7): L02 vs MCF7
# Description: as §2, §4
# [7] = tested on: HeLa cells; test: In vitro anti-proliferative SRB assay, HeLa; assay type: cell-based, human; conditions: for IC50: Homo sapiens, HeLa, increasing concentrations up to 30 μM, mean ± SD of at least three independent experiments; for SI (CC50 HMLE/IC50 Hela) / SI (CC50 L02/IC50 Hela): selectivity index; for SI (CC50 HMLE/IC50 Hela): HMLE vs HeLa; for SI (CC50 L02/IC50 Hela): L02 vs HeLa
# Description: as §2, §4
# [8] = HepG2 cells, 10 μM, SRB assay, mean ± SD of three independent experiments
compound,measurement,setting,value
"CCOc1cccc(C(=O)/C=C/c2c(OC)cccc2OC)c1 [b9, (E)-1-(3-Ethoxyphenyl)-3-(2,6-dimethoxyphenyl)prop-2-en-1-one]",CC50 at 48 h,[1],9.58 ± 0.44 µM
same,CC50 at 48 h,[2],17.4 ± 5.96 µM
same,IC50,[3],10.68 ± 0.08 µM
same,SI (CC50 HMLE/IC50 SW1990),[3],0.9
same,SI (CC50 L02/IC50 SW1990),[3],1.6
same,IC50,[4],7.71 ± 0.21 µM
same,SI (CC50 HMLE/IC50 HepG2),[4],1.2
same,SI (CC50 L02/IC50 HepG2),[4],2.3
same,IC50,[5],13.2 ± 0.43 µM
same,SI (CC50 HMLE/IC50 A549),[5],0.7
same,SI (CC50 L02/IC50 A549),[5],1.3
same,IC50,[6],11.59 ± 0.07 µM
same,SI (CC50 HMLE/IC50 MCF7),[6],0.8
same,SI (CC50 L02/IC50 MCF7),[6],1.5
same,IC50,[7],12.2 ± 0.25 µM
same,SI (CC50 HMLE/IC50 Hela),[7],0.8
same,SI (CC50 L02/IC50 Hela),[7],1.4
same,melting point,,63.1 to 64.8 °C
(E)-1-(4-Methoxyphenyl)-3-(4-carbonylphenyl)prop-2-en-1-one [a7],Inhibition (%),[4]; [8],32.7 ± 3.0%
"COc1cccc(OC)c1/C=C/C(=O)c1cccc(F)c1 [b32, (E)-1-(3-Fluorophenyl)-3-(2,6-dimethoxyphenyl)prop-2-en-1-one]",CC50 at 48 h,[1],11.9 ± 1.28 µM
same,CC50 at 48 h,[2],72 ± 12.1 µM
same,IC50,[3],28.38 ± 0.27 µM
same,SI (CC50 HMLE/IC50 SW1990),[3],0.4
same,SI (CC50 L02/IC50 SW1990),[3],2.5
same,IC50,[4],21.6 ± 0.97 µM
same,SI (CC50 HMLE/IC50 HepG2),[4],0.6
same,SI (CC50 L02/IC50 HepG2),[4],3.3
same,IC50,[5],27.2 ± 1.39 µM
same,SI (CC50 HMLE/IC50 A549),[5],0.4
same,SI (CC50 L02/IC50 A549),[5],2.7
same,IC50,[6],25.5 ± 0.78 µM
same,SI (CC50 HMLE/IC50 MCF7),[6],0.5
same,SI (CC50 L02/IC50 MCF7),[6],2.8
same,IC50,[7],20.7 ± 0.78 µM
same,SI (CC50 HMLE/IC50 Hela),[7],0.6
same,SI (CC50 L02/IC50 Hela),[7],3.5
same,melting point,,105.4 to 107.3 °C
"COc1ccc(C(=O)/C=C/c2ccccc2OC)cc1 [a8, (E)-1-(4-Methoxyphenyl)-3-(2-methoxyphenyl)prop-2-en-1-one]",inhibition at 10 µM,[4]; [8],61.4 ± 3.4%
same,melting point,,43.2 to 45.5 °C
"COc1ccc(C(=O)/C=C/c2ccc([N+](=O)[O-])cc2)cc1 [a6, (E)-1-(4-Methoxyphenyl)-3-(4-nitrophenyl)prop-2-en-1-one]",inhibition at 10 µM,[4]; [8],9.8 ± 5%
"COc1ccc(C(=O)/C=C/c2cc(OC)ccc2OC)cc1 [a13, (E)-1-(4-methoxyphenyl)-3-(2,5-dimethoxyphenyl)prop-2-en-1-one]",inhibition at 10 µM,[4]; [8],77 ± 2.2%
same,melting point,,54.7 to 56.3 °C
"COc1ccc(C(=O)/C=C/c2ccc(OC)c(OCc3ccccc3)c2)cc1 [a17, (E)-1-(4-Methoxyphenyl)-3-(3-(benzyloxy)-4-methoxyphenyl)prop-2-en-1-one]",inhibition at 10 µM,[4]; [8],44.1 ± 6.2%
same,melting point,,115 to 118.2 °C
"COc1ccc(C(=O)/C=C/c2ccccc2)cc1 [a1, (E)-1-(4-Methoxyphenyl)-3-phenylprop-2-en-1-one]",inhibition at 10 µM,[4]; [8],42.4 ± 2%
"COc1cc([C@@H]2c3cc4c(cc3[C@@H](O[C@@H]3O[C@@H]5CO[C@@H](C)O[C@H]5[C@H](O)[C@H]3O)[C@H]3COC(=O)[C@H]23)OCO4)cc(OC)c1O [Etoposide, reference compound]",CC50 at 48 h,[1],6.42 ± 0.39 µM
same,CC50 at 48 h,[2],> 100 µM
same,IC50,[3],29.3 ± 1.73 µM
same,IC50,[4],5.11 ± 0.45 µM
same,inhibition at 10 µM,[4]; [8],63.9 ± 0.1%
same,IC50,[5],3.23 ± 0.28 µM
same,IC50,[6],20.6 ± 0.34 µM
same,IC50,[7],3.96 ± 0.17 µM
"COc1ccc(C(=O)/C=C/c2ccc(OC)c(OC)c2)cc1 [a15, (E)-1-(4-Methoxyphenyl)-3-(3,4-dimethoxyphenyl)prop-2-en-1-one]",inhibition at 10 µM,[4]; [8],65 ± 17.6%
"COc1ccc(/C=C/C(=O)c2ccc(OC)cc2)cc1 [a10, (E)-1,3-bis(4-Methoxyphenyl)prop-2-en-1-one]",inhibition at 10 µM,[4]; [8],27.7 ± 17.7%
"COc1ccc(C(=O)/C=C/c2ccc(OC)c(OC)c2OC)cc1 [a18, (E)-1-(4-Methoxyphenyl)-3-(2,3,4-trimethoxyphenyl)prop-2-en-1-one]",inhibition at 10 µM,[4]; [8],31.8 ± 7.3%
same,melting point,,94.4 to 96.5 °C
"COc1ccc(C(=O)/C=C/c2cc(OC)c(OC)cc2OC)cc1 [a19, (E)-1-(4-Methoxyphenyl)-3-(2,4,5-trimethoxyphenyl)prop-2-en-1-one]",inhibition at 10 µM,[4]; [8],38.1 ± 10.3%
same,melting point,,122.1 to 123.7 °C
"COc1cccc(OC)c1/C=C/C(=O)c1ccccc1 [b1, (E)-1-Phenyl-3-(2,6-dimethoxyphenyl)prop-2-en-1-one]",CC50 at 48 h,[1],9.47 ± 0.39 µM
same,IC50,[3],> 30 µM
same,SI (CC50 HMLE/IC50 SW1990),[3],<0.3
same,SI (CC50 L02/IC50 SW1990),[3],<1.1
same,IC50,[4],21 ± 1.75 µM
same,SI (CC50 HMLE/IC50 HepG2),[4],0.5
same,SI (CC50 L02/IC50 HepG2),[4],1.6
same,IC50,[5],> 30 µM
same,SI (CC50 HMLE/IC50 A549),[5],<0.3
same,SI (CC50 L02/IC50 A549),[5],<1.1
same,IC50,[6],28.18 ± 0.04 µM
same,SI (CC50 HMLE/IC50 MCF7),[6],0.3
same,SI (CC50 L02/IC50 MCF7),[6],1.2
same,IC50,[7],> 30 µM
same,SI (CC50 HMLE/IC50 Hela),[7],<0.3
same,SI (CC50 L02/IC50 Hela),[7],<1.1
same,melting point,,52.6 to 54.7 °C
"COc1ccc(C(=O)/C=C/c2ccc(Br)cc2F)cc1 [a3, (E)-1-(4-Methoxyphenyl)-3-(4-bromo-2-fluorophenyl)prop-2-en-1-one]",inhibition at 10 µM,[4]; [8],41.8 ± 5.9%
same,melting point,,122.2 to 123.6 °C
"CCOc1ccc(/C=C/C(=O)c2ccc(OC)cc2)cc1 [a11, (E)-1-(4-Methoxyphenyl)-3-(4-ethoxyphenyl)prop-2-en-1-one]",inhibition at 10 µM,[4]; [8],13.1 ± 8.4%
same,melting point,,106.3 to 107.9 °C
"COc1ccc(C(=O)/C=C/c2c(OC)cccc2OC)cc1 [a14, (E)-1-(4-Methoxyphenyl)-3-(2,6-dimethoxyphenyl)prop-2-en-1-one]",inhibition at 10 µM,[4]; [8],78.1 ± 4.7%
same,melting point,,123.7 to 125.7 °C
"COc1ccc(C(=O)/C=C/c2cccc(OC)c2)cc1 [a9, (E)-1-(4-Methoxyphenyl)-3-(3-methoxyphenyl)prop-2-en-1-one]",inhibition at 10 µM,[4]; [8],59 ± 2.9%
same,melting point,,95.7 to 97 °C
"COc1ccc(C(=O)/C=C/c2cccc(OC)c2OC)cc1 [a12, (E)-1-(4-Methoxyphenyl)-3-(2,3-dimethoxyphenyl)prop-2-en-1-one]",inhibition at 10 µM,[4]; [8],66.3 ± 4.2%
"COc1ccc(C(=O)/C=C/c2ccc(Br)cc2Cl)cc1 [a5, (E)-1-(4-Methoxyphenyl)-3-(4-bromo-2-chlorophenyl)prop-2-en-1-one]",inhibition at 10 µM,[4]; [8],9 ± 5.6%
same,melting point,,145.3 to 146.4 °C
"COc1ccc(C(=O)/C=C/c2ccc(Br)cc2)cc1 [a2, (E)-1-(4-Methoxyphenyl)-3-(4-bromophenyl)prop-2-en-1-one]",inhibition at 10 µM,[4]; [8],37.6 ± 4.4%
same,melting point,,153.7 to 155.1 °C
"COc1ccc(C(=O)/C=C/c2ccc(F)cc2Br)cc1 [a4, (E)-1-(4-Methoxyphenyl)-3-(2-bromo-4-fluorophenyl)prop-2-en-1-one]",inhibition at 10 µM,[4]; [8],41.2 ± 4.6%
same,melting point,,98.7 to 101 °C
